Legend:
Assay type in all cases: cell-based
BT474 = assay: Cell-Titer Glo Cell Growth Inhibition Assay, BT474; conditions: Homo sapiens; CellTiter-Glo, 72 h, BT 474; read-out: CTG BT 474 IC50
Protocol: (§1) A549-L (human lung), BT474 (human breast), Colo 205 (human colon), H1299 (human lung), Hela (human cervix), HCT-116 (human colon), HN5 (human head and neck), HT29 (human colon), LNCap (human prostate), MCF7 (human breast), MDA-MB468 (human breast), MX-1 (human breast), RPMI 8226 (human peripheral blood), SKOV3 (human ovary) and P388 (murine leukemia) cell lines were cultured in RPMI1640 containing 10% fetal bovine serum at 37° C. in a 5% CO2 incubator. Cell lines were split into T75 flasks (Falcon #353136) two to three days prior to assay set up at density which yields approximately 70-80% confluency at time of harvest for assay. Cells were harvested using 0.25% trypsin with EDTA (Glibco/Invitrogen #25200-056), Cell counts were performed on cell suspensions using Trypan Blue exclusion staining, cells were then plated in 105 uL of culture media per well at the following densities in 96 well Costar #3916 black flat bottom plates: All human cell lines were plated at 500 cells/well. P388 were plated at 250 cells/well. All plates were placed at 5% CO2 37° C. overnight and then test compounds were added the following day. One plate of each cell type is treated with CellTiter-Glo (Promega #G7573) for a day 0 proliferation measurement and read as described below. […]

Hela = assay: Cell-Titer Glo Cell Growth Inhibition Assay, Hela; conditions: Homo sapiens, CellTiter-Glo, 72 h, read-out: CTG Hela IC50
Protocol: as §1

HN5 = assay: Cell-Titer Glo Cell Growth Inhibition Assay, HN5; conditions: Homo sapiens, CellTiter-Glo, 72 h, read-out: CTG HN5 IC50
Protocol: as §1

LNCap = assay: Cell-Titer Glo Cell Growth Inhibition Assay, LNCap; conditions: Homo sapiens, CellTiter-Glo, 72 h, read-out: CTG LNCap IC50
Protocol: as §1

MCF7 = assay: Cell-Titer Glo Cell Growth Inhibition Assay, MCF7; conditions: Homo sapiens, CellTiter-Glo, 72 h, read-out: CTG MCF7 IC50
Protocol: as §1

MDA-MB468 = assay: Cell-Titer Glo Cell Growth Inhibition Assay, MDA-MB468; conditions: Homo sapiens, MDA-MB-468, CellTiter-Glo, 72 h, read-out: CTG MDA-MB468 IC50
Protocol: as §1

H1299 = assay: Cell-Titer Glo Cell Growth Inhibition Assay, H1299; conditions: Homo sapiens, NCI-H1299, CellTiter-Glo, 72 h, read-out: CTG H1299 IC50
Protocol: as §1

RPMI 8226 = assay: Cell-Titer Glo Cell Growth Inhibition Assay, RPMI 8226; conditions: Homo sapiens, CellTiter-Glo, 72 h, read-out: CTG RPMI 8226 IC50
Protocol: as §1

Measured: IC50

C[C@@H](Oc1cc(-n2cnc3cc(-c4cnn(C)c4)ccc32)sc1C(N)=O)c1ccccc1Cl [Example 9, 3-{[(1R)-1-(2-Chlorophenyl)ethyl]oxy}-5-[5-(1-methyl-1H-pyrazol-4-yl)-1H-benzimidazol-1-yl]-2-thiophenecarboxamide]
< 100 nM: all assays above

— US20080214563A1, “Benzimidazole Thiophene Compounds As Plk Modulators” (priority 2005, published 2008)
